Laboratory results taken from ChEMBL document CHEMBL1157533 (J Med Chem, 2008).

Tests used:
[1] = target: Beta-1 adrenergic receptor (Homo sapiens, UniProt P08588); test: Agonist activity at human recombinant beta-1 adrenergic receptor expressed in CHO cells assessed as cAMP accumulation by enzyme immuno assay; assay type: functional, cell-based
[2] = target: Beta-3 adrenergic receptor (Homo sapiens, UniProt P13945); test: Agonist activity at human recombinant beta3 adrenergic receptor expressed in CHO cells assessed as cAMP accumulation by enzyme immuno assay; assay type: functional, cell-based
[3] = target: Beta-2 adrenergic receptor (Homo sapiens, UniProt P07550); test: Agonist activity at human recombinant beta2 adrenergic receptor expressed in CHO cells assessed as cAMP accumulation by enzyme immuno assay; assay type: functional, cell-based
[4] = Protein binding in Beagle dog serum; assay type: ADME, cell-free, Canis lupus familiaris; details: read-out: PPB (converted)
[5] = AUC (0 to 2 hrs) in Beagle dog at 0.1 mg/kg, po by cassette assay; assay type: ADME, organism-based, Canis lupus familiaris; set-up: time < 2 hr, dose 0.1 mg/kg, route oral; details: plasma
[6] = Terminal half life in Beagle dog at 0.1 mg/kg, iv by cassette assay; assay type: ADME, organism-based, Canis lupus familiaris; set-up: dose 0.1 mg/kg, route intravenous; details: in vivo, read-out: beta t1/2 (converted)
[7] = Volume of distribution at steady state in Beagle dog at 0.1 mg/kg, iv by cassette assay; assay type: ADME, organism-based, Canis lupus familiaris; set-up: dose 0.1 mg/kg, route intravenous; details: in vivo, read-out: Vdss
[8] = AUC (0 to 24 hrs) in Beagle dog at 0.1 mg/kg, iv by cassette assay; assay type: ADME, organism-based, Canis lupus familiaris; set-up: time < 24 hr, dose 0.1 mg/kg, route intravenous; details: plasma
[9] = Total clearance in Beagle dog at 0.1 mg/kg, iv by cassette assay; assay type: ADME, organism-based, Canis lupus familiaris; set-up: dose 0.1 mg/kg, route intravenous; details: in vivo
[10] = Bioavailability in Beagle dog at 0.1 mg/kg, po by cassette assay; assay type: ADME, organism-based, Canis lupus familiaris; details: in vivo
[11] = Bioavailability in rat at 1.0 mg/kg, po; assay type: ADME, organism-based; details: in vivo
[12] = Cmax in rat at 1.0 mg/kg, po; assay type: ADME, organism-based; set-up: dose 1 mg/kg, route oral; details: in vivo
[13] = AUC (0 to 24 hrs) in rat at 1.0 mg/kg, po; assay type: ADME, organism-based; set-up: time < 24 hr, dose 1 mg/kg, route oral; details: plasma
[14] = Terminal half life in rat plasma at 1.0 mg/kg, iv; assay type: ADME, organism-based; set-up: dose 1 mg/kg, route intravenous; details: read-out: beta t1/2 (converted)
[15] = Total clearance in rat at 1.0 mg/kg, iv; assay type: ADME, organism-based; set-up: dose 1 mg/kg, route intravenous; details: in vivo
[16] = Cmax in dog at 0.1 mg/kg, po; assay type: ADME, organism-based, Canis lupus familiaris; set-up: dose 0.1 mg/kg, route oral; details: in vivo
[17] = Bioavailability in dog at 0.1 mg/kg, po; assay type: ADME, organism-based, Canis lupus familiaris; details: in vivo
[18] = Terminal half life in dog at 0.1 mg/kg, iv; assay type: ADME, organism-based, Canis lupus familiaris; set-up: dose 0.1 mg/kg, route intravenous; details: in vivo, read-out: beta t1/2 (converted)
[19] = Total clearance in dog at 0.1 mg/kg, iv; assay type: ADME, organism-based, Canis lupus familiaris; set-up: dose 0.1 mg/kg, route intravenous; details: in vivo
[20] = AUC (0 to 24 hrs) in dog at 0.1 mg/kg, po; assay type: ADME, organism-based, Canis lupus familiaris; set-up: time < 24 hr, dose 0.1 mg/kg, route oral; details: plasma
[21] = Metabolic stability assessed as intrinsic clearance in dog liver microsome in presence of NADPH-generating system; assay type: ADME, Canis lupus familiaris; details: liver microsomes

Chain of Beta-1 adrenergic receptor (P08588 whole entry): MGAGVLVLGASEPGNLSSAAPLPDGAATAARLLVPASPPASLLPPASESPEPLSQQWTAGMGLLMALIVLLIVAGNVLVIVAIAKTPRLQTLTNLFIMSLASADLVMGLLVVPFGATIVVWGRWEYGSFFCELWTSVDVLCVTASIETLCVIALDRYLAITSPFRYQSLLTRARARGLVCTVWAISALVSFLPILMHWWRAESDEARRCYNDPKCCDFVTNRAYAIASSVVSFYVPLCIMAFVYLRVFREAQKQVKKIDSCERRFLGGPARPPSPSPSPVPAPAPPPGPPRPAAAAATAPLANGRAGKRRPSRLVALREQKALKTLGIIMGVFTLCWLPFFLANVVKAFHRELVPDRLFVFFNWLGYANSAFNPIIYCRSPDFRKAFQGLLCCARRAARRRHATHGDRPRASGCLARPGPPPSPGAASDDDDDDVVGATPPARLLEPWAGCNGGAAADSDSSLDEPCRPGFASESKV
Chain of Beta-3 adrenergic receptor (P13945 whole entry): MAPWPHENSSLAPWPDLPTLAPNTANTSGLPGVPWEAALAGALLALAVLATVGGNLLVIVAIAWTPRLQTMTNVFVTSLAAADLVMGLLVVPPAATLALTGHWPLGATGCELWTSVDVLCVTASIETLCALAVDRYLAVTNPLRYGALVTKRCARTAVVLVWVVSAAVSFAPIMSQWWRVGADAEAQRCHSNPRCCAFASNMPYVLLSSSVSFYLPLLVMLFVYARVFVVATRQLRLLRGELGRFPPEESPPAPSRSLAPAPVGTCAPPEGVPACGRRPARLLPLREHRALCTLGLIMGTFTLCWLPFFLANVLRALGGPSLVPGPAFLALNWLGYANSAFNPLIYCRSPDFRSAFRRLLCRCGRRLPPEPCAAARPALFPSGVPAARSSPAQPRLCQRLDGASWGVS
Chain of Beta-2 adrenergic receptor (P07550 whole entry): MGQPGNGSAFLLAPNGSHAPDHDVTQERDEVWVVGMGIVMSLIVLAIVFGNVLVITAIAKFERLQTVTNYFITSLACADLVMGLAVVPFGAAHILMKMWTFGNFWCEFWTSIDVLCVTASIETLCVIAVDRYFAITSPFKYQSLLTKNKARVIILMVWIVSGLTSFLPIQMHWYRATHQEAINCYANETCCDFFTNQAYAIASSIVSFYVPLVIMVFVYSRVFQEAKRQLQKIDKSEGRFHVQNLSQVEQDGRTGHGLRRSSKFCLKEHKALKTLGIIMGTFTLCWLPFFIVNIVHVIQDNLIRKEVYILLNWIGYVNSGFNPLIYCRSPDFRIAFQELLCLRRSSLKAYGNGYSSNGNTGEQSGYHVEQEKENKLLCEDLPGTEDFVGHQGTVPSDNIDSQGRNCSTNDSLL

SMILES	EC50 [1]	EC50 [2]	further results
CCCOc1cc(-c2ccc(OCCNC[C@H](O)c3ccccc3)cc2)ccc1C(=O)O	210 nM	1.2 nM	
Nc1ccc([C@@H](O)CNCCc2ccc(-c3ccc(C(=O)O)c(OC4CCCCC4)c3)cc2)cn1	39 nM	0.035 nM	EC50 [3]: 1100 nM
CCCOc1cc(-c2ccc(CCN[C@@H](C)[C@H](O)c3ccccc3)cc2)ccc1C(=O)O	690 nM	0.43 nM	EC50 [3]: > 10000 nM
CCCOc1cc(-c2ccc(CCCNC[C@H](O)c3cccc(Cl)c3)cc2)ccc1C(=O)O	180 nM	0.7 nM	
CC(C)Oc1cc(-c2ccc(CCNC[C@H](O)c3ccccc3)cc2)ccc1C(=O)O			fraction unbound [4]: 0.14
CC(C)Oc1cc(-c2ccc(CCNC[C@H](O)c3ccc(N)cc3)cc2)ccc1C(=O)O	> 1000 nM	2.6 nM	
C[C@H](Cc1ccc(-c2ccc(C(=O)O)c(OC3CCCCC3)c2)cc1)NC[C@H](O)c1cccnc1	24 nM	0.069 nM	
O=C(O)c1ccc(-c2ccc(OCCNC[C@H](O)c3cccc(Cl)c3)cc2)cc1OC1CCCCC1	52 nM	0.27 nM	
CC(C)COc1cc(-c2ccc(C[C@@H](C)NC[C@H](O)c3ccccc3)cc2)ccc1C(=O)O	130 nM	0.041 nM	AUC(0-t) at 2 h [5]: 0.2 ng·h/mL; half-life [6]: 17.7 h; Vd [7]: 30.8 L/kg; AUC(0-t) at 24 h [8]: 44.5 ng·h/mL; clearance [9]: 39 mL/min/kg; bioavailability [10]: 0.4%
CC(C)Cc1cc(-c2ccc(OCCNC[C@H](O)c3cccc(Cl)c3)cc2)ccc1C(=O)O	15 nM	0.68 nM	
CC(C)Oc1cc(-c2ccc(CCNC[C@H](O)c3ccc(O)c(NS(C)(=O)=O)c3)cc2)ccc1C(=O)O	150 nM	0.26 nM	
CC(C)Oc1cc(-c2ccc(CCNC[C@H](O)c3cccc(O)c3)cc2)ccc1C(=O)O	440 nM	0.062 nM	
CCCOc1cc(-c2ccc(NCCNC[C@H](O)c3cccc(Cl)c3)cc2)ccc1C(=O)O	11 nM	0.21 nM	
CCOc1cc(-c2ccc(C[C@@H](C)NC[C@H](O)c3ccccc3)cc2)ccc1C(=O)O	62 nM	0.31 nM	AUC(0-t) at 2 h [5]: 350 ng·h/mL; half-life [6]: 9.9 h; Vd [7]: 1.9 L/kg; AUC(0-t) at 24 h [8]: 477 ng·h/mL; clearance [9]: 3.5 mL/min/kg; bioavailability [10]: 73%
CC(C)Cc1cc(-c2ccc(CCN[C@@H](C)[C@H](O)c3ccccc3)cc2)ccc1C(=O)O	300 nM	0.14 nM	
C[C@@H](Cc1ccc(-c2ccc(C(=O)O)cc2)cc1)NC[C@H](O)c1cccc(Cl)c1	12 nM	6 nM	
CC(C)COc1cc(-c2ccc(OCCNC[C@H](O)c3cccc(Cl)c3)cc2)ccc1C(=O)O	110 nM	0.32 nM	
CC(C)Cc1cc(-c2ccc(CCNC[C@H](O)c3cccnc3)cc2)ccc1C(=O)O	> 1000 nM	0.26 nM	
C[C@H](Cc1ccc(-c2ccc(C(=O)O)cc2)cc1)NC[C@H](O)c1ccccc1	22 nM	0.3 nM	EC50 [3]: > 1000 nM

SMILES	EC50 [1]	EC50 [2]	further results
CC(C)Oc1cc(-c2ccc(C[C@@H](C)NC[C@H](O)c3cccnc3)cc2)ccc1C(=O)O	80 nM	0.099 nM	EC50 [3]: > 1000 nM
O=C(O)c1ccc(-c2ccc(OCCNC[C@H](O)c3ccccc3)cc2)cc1OC1CCCCC1	91 nM	0.16 nM	
CC(C)Oc1cc(-c2ccc(CCNC[C@H](O)c3ccc(N)nc3)cc2)ccc1C(=O)O	130 nM	0.19 nM	EC50 [3]: > 10000 nM
CC(C)Oc1cc(-c2ccc(CCNC[C@H](O)c3cccc(NS(C)(=O)=O)c3)cc2)ccc1C(=O)O	> 1000 nM	30 nM	
CC(C)Oc1cc(-c2ccc(CCNC[C@H](O)c3cccc(F)c3)cc2)ccc1C(=O)O	320 nM	2.1 nM	
CC(C)Oc1cc(-c2ccc(CC(C)(C)NC[C@H](O)c3ccccc3)cc2)ccc1C(=O)O	280 nM	0.91 nM	
CC(C)Oc1cc(-c2ccc(CCNC[C@H](O)c3ccc(Cl)cc3)cc2)ccc1C(=O)O	500 nM	2.4 nM	
C[C@H](Cc1ccc(-c2ccc(C(=O)O)cc2)cc1)NC[C@H](O)c1cccnc1	75 nM	0.49 nM	EC50 [3]: > 1000 nM; bioavailability [11]: 25.2%; Cmax [12]: 22 ng/mL; AUC(0-t) at 24 h [13]: 103 ng·h/mL; half-life [14]: 1.91 h; clearance [15]: 34.3 mL/min/kg; Cmax [16]: 30.5 ng/mL; bioavailability [17]: 59.7%; half-life [18]: 6.4 h; clearance [19]: 4.4 mL/min/kg; AUC(0-t) at 24 h [20]: 207 ng·h/mL
C[C@H](Cc1ccc(-c2ccc(C(=O)O)cc2)cc1)NC[C@H](O)c1cccc(Cl)c1	13 nM	0.18 nM	
CC(C)Oc1cc(-c2ccc(C[C@H](CO)NC[C@H](O)c3ccccc3)cc2)ccc1C(=O)O	> 1000 nM	7.4 nM	
CC(C)Oc1cc(-c2ccc(CCNC[C@H](O)c3cccc(N)c3)cc2)ccc1C(=O)O	> 1000 nM	8.1 nM	
CC(C)COc1cc(-c2ccc(OCCNC[C@H](O)c3ccccc3)cc2)ccc1C(=O)O	400 nM	0.55 nM	
CC(C)Oc1cc(-c2ccc(C[C@@H](C)NC[C@H](O)c3cccc(Cl)c3)cc2)ccc1C(=O)O	37 nM	0.19 nM	
C[C@H](Cc1ccc(-c2ccc(C(=O)O)c(OC3CCCCC3)c2)cc1)NC[C@H](O)c1ccccc1	28 nM	0.042 nM	half-life [6]: 0.35 h; Vd [7]: 1.13 L/kg; AUC(0-t) at 24 h [8]: 24.3 ng·h/mL; clearance [9]: 68.9 mL/min/kg; bioavailability [10]: 0%; CLint scaled [21]: < 0.1 mL/min/kg
CC(C)Oc1cc(-c2ccc(OCCNC[C@H](O)c3ccccc3)cc2)ccc1C(=O)O	510 nM	2.4 nM	
CC(C)Oc1cc(-c2ccc(OCCNC[C@H](O)c3cccc(Cl)c3)cc2)ccc1C(=O)O	84 nM	0.5 nM	
CCOC(=O)COc1ccc2c(c1)C[C@@H](NC[C@H](O)c1cccc(Cl)c1)CCC2			fraction unbound [4]: 0.06
CC(C)Oc1cc(-c2ccc(CCN[C@@H](C)[C@H](O)c3ccc(O)cc3)cc2)ccc1C(=O)O	500 nM	0.14 nM	
COc1cc(-c2ccc(C[C@@H](C)NC[C@H](O)c3ccccc3)cc2)ccc1C(=O)O	83 nM	0.79 nM	
